# Patent US20090209577A1, “Novel Triazolopyridine Compounds” (PFIZER INC., priority 2004, published 2009)
# Counter-ions that a name gives are not always drawn.
# Target: T1, human p38 kinase alpha (Homo sapiens, UniProt Q16539)
# T1 construct: The coding region of the human p38a cDNA was obtained by PCR-amplification from RNA isolated from the human monocyte cell line THP.1; made in house; host or cells: E. coli DH10B
# Assay: p38 kinase in vitro assay (PHAS-I / 32P-ATP format or EGFRP / 33P-ATP format)
# Type: biochemical
# Conditions: activated human p38 kinase alpha, 50 μM unlabeled ATP; two assay formats, table does not say which
# Procedure: The ability of compounds to inhibit human p38 kinase alpha was evaluated using two in vitro assay methods. In the first method, activated human p38 kinase alpha phosphorylates a biotinylated substrate, PHAS-I (phosphorylated heat and acid stable protein-insulin inducible), in the presence of gamma ^32P-ATP (^32P-ATP). PHAS-I was biotinylated prior to the assay and provides a means of capturing the substrate, which is phosphorylated during the assay. p38 Kinase was activated by MKK6. Compounds were tested in 10 fold serial dilutions over the range of 100 μM to 0.001 μM using 1% DMSO. Each concentration of inhibitor was tested in triplicate.
# All reactions were carried out in 96 well polypropylene plates. Each reaction well contained 25 mM HEPES pH 7.5, 10 mM magnesium acetate and 50 μM unlabeled ATP. Activation of p38 was required to achieve sufficient signal in the assay. Biotinylated PHAS-1 was used at 1-2 μg per 50 μl reaction volume, with a final concentration of 1.5 μM. Activated human p38 kinase alpha was used at 1 μg per 50 μl reaction volume representing a final concentration of 0.3 μM. Gamma ^32P-ATP was used to follow the phosphorylation of PHAS-1. ^32P-ATP has a specific activity of 3000 Ci/mmol and was used at 1.2 μCi per 50 μl reaction volume. The reaction proceeded either for one hour or overnight at 30° C.
# Following incubation, 20 μl of reaction mixture was transferred to a high capacity streptavidin coated filter plate (SAM-streptavidin-matrix, Promega) prewetted with phosphate buffered saline. The transferred reaction mix was allowed to contact the streptavidin membrane of the Promega plate for 1-2 minutes. Following capture of biotinylated PHAS-1 with ^32P incorporated, each well was washed to remove unincorporated ^32P-ATP three times with 2M NaCl, three washes of 2M NaCl with 1% phosphoric, three washes of distilled water and finally a single wash of 95% ethanol. Filter plates were air-dried and 20 μl of scintillant was added. The plates were sealed and counted.
# A second assay format was also employed that is based on p38 kinase alpha induced phosphorylation of EGFRP (epidermal growth factor receptor peptide, a 21 mer) in the presence ^33P-ATP. Compounds were tested in 10 fold serial dilutions over the range of 100 μM to 0.001 μM in 1% DMSO. Each concentration of inhibitor was tested in triplicate. Compounds were evaluated in 50 μl reaction volumes in the presence of 25 mM Hepes pH 7.5, 10 mM magnesium acetate, 4% glycerol, 0.4% bovine serum albumin, 0.4 mM DTT, 50 μM unlabeled ATP, 25 μg EGFRP (200 μM), and 0.05 μCi ^33P-ATP. Reactions were initiated by addition of 0.09 μg of activated, purified human GST-p38 kinase alpha. Activation was carried out using GST-MKK6 (5:1, p38:MKK6) for one hour at 30° C. in the presence of 50 μM ATP. Following incubation for 60 minutes at room temperature, the reaction was stopped by addition of 150 μl of AG 1×8 resin in 900 mM sodium formate buffer, pH 3.0 (1 volume resin to 2 volumes buffer). The mixture was mixed three times with pipetting and the resin was allowed to settle. A total of 50 μl of clarified solution head volume was transferred from the reaction wells to Microlite-2 plates. 150 μl of Microscint 40 was then added to each well of the Microlite plate, and the plate was sealed, mixed, and counted.
# The above protocol assays were used to determine the IC50 values for compounds in Examples 1-71 above.
# T1 sequence (Q16539 whole entry): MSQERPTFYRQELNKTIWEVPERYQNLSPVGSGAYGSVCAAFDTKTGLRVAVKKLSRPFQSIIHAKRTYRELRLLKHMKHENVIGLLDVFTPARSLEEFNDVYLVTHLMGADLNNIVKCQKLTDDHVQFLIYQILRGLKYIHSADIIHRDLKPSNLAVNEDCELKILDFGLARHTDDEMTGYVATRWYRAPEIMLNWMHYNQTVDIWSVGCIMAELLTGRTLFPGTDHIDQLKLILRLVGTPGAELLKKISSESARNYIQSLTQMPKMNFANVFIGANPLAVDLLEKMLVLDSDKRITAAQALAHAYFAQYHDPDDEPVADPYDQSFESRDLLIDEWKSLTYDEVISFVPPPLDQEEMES
row,SMILES,IC50 [µM]
1,"CC(C)c1nnc2ccc([C@@H]3C[C@@H]3c3ccc(F)cc3F)cn12 (racemic) [Example 3, Racemic 6-[2-(2,4-difluorophenyl)cyclopropyl]-3-isopropyl[1,2,4]triazolo[4,3-a]pyridine]",16.9
2,"CC(C)c1nnc2ccc(Cc3ccc(Cl)nc3)cn12 [Example 9, 6-[(6-chloropyridin-3-yl)methyl]-3-isopropyl[1,2,4]triazolo[4,3-a]pyridine]",53.3
3,"COC(=O)c1cccc(-c2nnc3ccc(C(=O)c4ccc(F)cc4F)cn23)c1 [Example 29, methyl 3-[6-(2,4-difluorobenzoyl)[1,2,4]triazolo[4,3-a]pyridin-3-yl]benzoate]",14
4,"CC(C)c1nnc2ccc(COCc3ccc(F)cc3F)cn12 [Example 6, 6-{[(2,4-difluorobenzyl)oxy]methyl}-3-isopropyl[1,2,4]triazolo[4,3-a]pyridine]",> 100
5,"NC(=O)c1cccc(-c2nnc3ccc(C(=O)c4ccc(F)cc4F)cn23)c1 [Example 30, 3-[6-(2,4-difluorobenzoyl)[1,2,4]triazolo[4,3-a]pyridin-3-yl]benzamide]",> 100
6,"CC(C)(C)c1nnc2ccc(O)c(Cc3ccc(F)cc3F)n12 [Example 13, 3-tert-butyl-5-(2,4-difluorobenzyl)[1,2,4]triazolo[4,3-a]pyridin-6-ol]",> 100
7,"CCCCSc1ccc2nnc(C(C)C)n2c1 [Example 37, 6-(butylthio)-3-isopropyl[1,2,4]triazolo[4,3-a]pyridine hydrochloride]",> 100
8,"CC(C)c1nnc2ccc(Cc3cccc(F)c3)cn12 [Example 68, 6-(3-fluorobenzyl)-3-isopropyl[1,2,4]triazolo[4,3-a]pyridine]",5.26

# Compounds with a lower IC50, results first:
row,IC50 [µM],SMILES
1,0.0546,"CC(C)(C)c1nnc2ccc(Sc3c(Cl)cccc3Cl)cn12 [Example 63, 3-tert-butyl-6-[(2,6-dichlorophenyl)thio][1,2,4]triazolo[4,3-a]pyridine]"
2,1.13,"COC(=O)c1cccc(-c2nnc3ccc(C(O)c4ccc(F)cc4F)cn23)c1 (stereo not drawn) [Example 65, methyl 3-{6-[(2,4-difluorophenyl)(hydroxy)methyl][1,2,4]triazolo[4,3-a]pyridin-3-yl}benzoate]"
3,0.0123,"CC(C)c1nnc2ccc(Sc3ccc(F)cc3F)c(Cl)n12 [Example 36, 5-chloro-6-[(2,4-difluorophenyl)thio]-3-isopropyl[1,2,4]triazolo[4,3-a]pyridine]"
4,0.443,"OCC(O)c1ccc(-c2nnc3ccc(Cc4ccc(F)cc4F)cn23)cc1 (stereo not drawn) [Example 62, 1-{4-[6-(2,4-difluorobenzyl)[1,2,4]triazolo[4,3-a]pyridin-3-yl]phenyl}ethane-1,2-diol trifluoroacetate]"
5,0.212,"O=C(CO)N1CCC(c2nnc3ccc(Sc4ccc(F)cc4F)cn23)CC1 [Example 44, 2-(4-{6-[(2,4-difluorophenyl)thio][1,2,4]triazolo[4,3-a]pyridin-3-yl}piperidin-1-yl)-2-oxoethanol hydrochloride]"
6,0.107,"COC(=O)c1ccc(C)c(-c2nnc3n2CC(CCc2ccc(F)cc2F)CC3)c1 (racemic) [Example 18, racemic methyl 3-{6-[2-(2,4-difluorophenyl)ethyl]-5,6,7,8-tetrahydro[1,2,4]triazolo[4,3-a]pyridin-3-yl}-4-methylbenzoate]"
7,0.0608,"Cc1ccc(C(N)=O)cc1-c1nnc2ccc(Sc3ccc(F)cc3F)cn12 [Example 41, 3-{6-[(2,4-difluorophenyl)thio][1,2,4]triazolo[4,3-a]pyridin-3-yl}-4-methylbenzamide]"
